# Data reported in patent US20250051703A1, “EGG OPENER, EX OVO TUMOR XENOGRAFT METHOD, THERAPEUTIC COMPOUND ASSAY, THERAPEUTIC COMPOUND TESTING METHOD VIA EX OVO QUAIL EGG XENOGRAFT ASSAY” (CHILDREN'S CANCER THERAPY DEVELOPMENT INSTITUTE, priority 2021, published 2025).
# Entries after “also recorded” stand apart in the source; their conditions may differ.
# Assays:
# [1] = tested on: Hep3B human hepatocellular carcinoma; details: literature (Li, et al.); cited from earlier work
# [2] = tested on: BT474 human breast cancer cell line; assay: BT474 xenograft CAM assay, radiance; assay type: in vivo; details: FIGS. 18C and 18D
# [3] = tested on: U48484 mouse rhabdomyosarcoma cells; assay: Quail tumor assay: U48484 tumor module xenograft on quail CAM, bioluminescence; assay type: in vivo
# Protocol: U48484 mouse rhabdomyosarcoma cells were cultured, trypsinized and added to two different vials of hydrogel making a concentration of 10^6 cells per 50 μl. BEZ235 (cat #S1009, Selleck Chemicals, Houston, TX) in a solution of 0.1% DMF (cat #TS-20673, Thermo Fisher Scientific) in PBS was added to 10^6 U48484 mouse rhabdomyosarcoma cells mixed with 50 μl hydrogel for a final concentration of 500 nM BEZ235. For untreated eggs, 0.1% DMF in PBS was used as a control. 50 μl of cells/hydrogel/drug mixture were added to each scaffold and incubated for approximately 30-45 minutes at 37° C. and 100% humidity. As detailed above, a superficial injury was created on the chorioallantoic membrane and tumor module containing either drug or control was placed on top. Quail bearing tumor module models were incubated for 72 hours. Add the end of the incubation, 100 μl of PBS containing 1.5 mg of luciferin-d (cat #122799, PerkinElmer) was added to the 3D scaffold, incubated for 10 minutes in the dark, and bioluminescence was measured using a Fluorchem instrument (ProteinSimple, San Jose, CA). The quail were imaged with an 8 minute exposure for total light emission.
# u48484 is a murine rhabdomyosarcoma cell line constitutively expressing firefly luciferase (available from the originating laboratory as described in Aslam et al, PDGFRβ reverses EphB4 signaling in alveolar rhabdomyosarcoma, Proc Natl Acad Sci USA. 2014 Apr. 29; 111 (17): 6383-8. doi: 10.1073/pnas. 1403608111; PMID 24733895), which is used to form a CAM xenograft as per the invention herein except being a non-human tumor cell line.
# U48484 mouse rhabdomyosarcoma cells were cultured, trypsinized and added to two different vials of hydrogel making a concentration of 10^6 cells per 50 μl. […] Add the end of the incubation, 100 μl of PBS containing 1.5 mg of luciferin-d (cat #122799, Perkin Elmer) was added to the 3D scaffold, incubated for 10 minutes in the dark, and bioluminescence was measured using a Fluorchem instrument (Protein Simple, San Jose, CA). […]
# HB282 CAM xenograft = assay: Quail dose response assay (ex ovo CAM xenograft, osmotic bead drug depot), HB282; assay type: in vivo; details: Homo sapiens, osmotic bead delivery, 72 hours, read-out: 50% tumor growth inhibition (ex ovo IC50), HB282
# Protocol: (§1) The tumor modules for dose response assay are generated as described above but with 5×10^5 cells per 50 μl. Drug was dissolved in DMSO for all levels to a final tumor module concentration of vehicle control, 0.3 μM, 3 μM, or 30 μM with n=6. P-10 beads (catalog #1504144, Bio-Rad, Hercules, CA, USA) are soaked in PBS at the concentration of the modules for four hours at room temperature. Approximately 50 μl of bead solution is added to a 9.5×1.5 mm plastic ring placed on top of the tumor module forming a drug depot. The drug depot provided a constant source of drug keeping the tumor module at a constant concentration despite drug leaving the module for the quail, as shown in FIG. 17. The IR820 has an exponential range between 0.001 and 1 μM as shown in the dose-response curve of FIG. 17A in lumens v. IR820 concentration.
# (§2) The quail with tumor module models and drug depots are incubated for 72 hours. Afterwards, 150 μl of 15 mg/ml luciferin (cat #122799, Perkin Elmer) in PBS is added to the modules incubated for 10 minutes and then imaged on an IVIS Lumina (PerkinElmer) for between 15 seconds (for cell lines HepG2) or 1 minute (for cell lines HB243 and HB282).
# (§3) The tumor modules for dose response assay were generated as described above but with 5×10^5 cells per 50 μl. […]
# HB243 murine xenografts = assay: Murine in vivo xenograft study, HB243; parameters: species or system mouse
# Protocol: All studies in mice were performed after receiving approval from the institutional animal care and use committee (IACUC) at Children's Cancer Therapy Development Institute and in accordance with ARRIVE Guidelines. HepG2 and HB243 were suspended in Matrigel and injected into n=10 eight week-old female nod scid gamma mice per cell line xenograft (Charles River, Hollister, CA, NOD.CB17-Prkde^scid/NCrCrl) with 2×10^6 cells per 100 μl injection. […] Volasertib (cat #S2235, Selleck Chem) was suspended in 3.75% DMSO and corn oil (cat #C8267, Sigma-Aldrich, St Louis, MO) at a concentration of 1.5 mg/ml with 100 μl injected intraperitoneally with mice chosen for the drug and control group randomly selected to minimize selection bias. The mice were imaged by intraperitoneal injection of luciferin-d according to manufacturer's instructions. The tumors were measured using calipers every 3 days and the equation for volume was […]. At the study end or if the tumors reached 1.5 cc the tumors were removed and measured.
# For the murine in vivo xenograft study survival analysis, the tumor endpoint volumes for time-to-event (TTE) analysis were set at 0.75 cc and were collected to 1.5 cc. TTE was defined in days by selecting the day in which the tumor volume equaled or surpassed 0.75 cc. […] The Kaplan-Meier survival plot represents the percentage of animals surviving at different time points during the study. These percentages were generated from the TTE data using GraphPad Prism 9.0 software (Graphpad Software, San Diego, CA, https://www.graphpad.com/scientific-software/prism/). Survival curve comparisons were analyzed using the Mantel-Cox and Gehan-Breslow-Wilcox tests (95% CI) through Graph Pad Prism 9.0 software. For the quail xenograft assay, significance was determined by an unpaired two-tailed t-test with Welch's correction and a p-value less than 0.05 was considered statistically significant. Error bars represent±standard error of the mean (SEM).
# [4] = tested on: HB282 hepatoblastoma cell line; assay: In vitro % viability dose-response, HB282; assay type: cell-based; details: Homo sapiens, n=4 replicates per point
# [5] = tested on: HepG2 xenograft CAM assay; assay: Quail dose response assay (ex ovo CAM xenograft, osmotic bead drug depot), HepG2; assay type: in vivo, human; details: for dose-response in HepG2 xenograft CAM assay: FIGS. 18H and 18I, radiance
# Protocol: as §1, §2
# Validation assays are conducted to correlate murine and human cell lines across a range of biologicals and small molecule drugs for pediatric and adult cell lines. B16F10 is a murine melanoma cell line constitutively expressing firefly luciferase (available as cat #BW124734 from Perkin-Elmer, Akron, Ohio USA), which is used to form a CAM xenograft as per the invention herein with the difference of being an adult-type cancer cell line, and radiance reflecting cell viability as impaired by drug. In FIGS. 18A-18J, to analyze drug efficacy on tumor cells, luciferin is added to the scaffold and then imaged by a CCD camera to determine the total xenograft cell viability, with the results indicated as radiance (e.g., steradians/cm^2/s) on the Y axis. See also FIG. 1 at Step 14. […]
# [6] = tested on: HepG2 hepatoblastoma cell line; assay: In vitro % viability dose-response, HepG2; assay type: cell-based; details: Homo sapiens, n=4 replicates per point
# [7] = tested on: HB243 hepatoblastoma cell line; assay: In vitro % viability dose-response, HB243; assay type: cell-based, human; details: n=4 replicates per point
# HB243 CAM xenograft = assay: Quail dose response assay (ex ovo CAM xenograft, osmotic bead drug depot), HB243; assay type: in vivo; details: Homo sapiens, osmotic bead delivery, 72 hours, read-out: 50% tumor growth inhibition (ex ovo IC50), HB243
# Protocol: as §1, §2, §3
# HepG2 murine xenografts = assay: Murine in vivo xenograft study, HepG2; parameters: species or system mouse; details: FIG. 16F
# Protocol: All studies in mice were performed after receiving approval from the institutional animal care and use committee (IACUC) at Children's Cancer Therapy Development Institute and in accordance with ARRIVE Guidelines. HepG2 and HB243 were suspended in Matrigel and injected into n=10 eight week-old female nod scid gamma mice per cell line xenograft (Charles River, Hollister, CA, NOD.CB17-Prkde^scid/NCrCrl) with 2×10^6 cells per 100 μl injection. […] The tumors were measured using calipers every 3 days and the equation for volume was V=L×W×H×0.5(π/6). At the study end or if the tumors reached 1.5 cc the tumors were removed and measured.
# For the murine in vivo xenograft study survival analysis, the tumor endpoint volumes for time-to-event (TTE) analysis were set at 0.75 cc and were collected to 1.5 cc. […] Survival curve comparisons were analyzed using the Mantel-Cox and Gehan-Breslow-Wilcox tests (95% CI) through Graph Pad Prism 9.0 software. For the quail xenograft assay, significance was determined by an unpaired two-tailed t-test with Welch's correction and a p-value less than 0.05 was considered statistically significant. […]
# [8] = tested on: murine glioma cell line GL261; details: literature (Yang, et al.); cited from earlier work
# [9] = tested on: murine glioma cell line GL261; details: literature (Yang, et al.); cited from earlier work; remark: listed apart in the source
# [10] = tested on: e10 quail embryo liver and kidney; details: Japanese quail, in vivo
# Protocol: Cediranib (Cat #S1017, Selleck Chemicals LLC, Houston, TX) and erlotinib (Cat #S7786) were purchased from Selleck Chemicals and reconstituted in dimethyl sulfoxide (DMSO) following the manufacturers recommendations and diluted to 10 mM stock concentration.
# Fertilized Japanese quail eggs were incubated and plated as described previously. Quail were allowed to grow ex ovo in six-well plates until the quail had passed the patterning phase (e8 based on plating date). Each experimental arm was assigned n=4 viable quail and treated with one of four experimental conditions: vehicle, cediranib, ertoltinib, and cediranib+erlotinib. […] Stock concentrations were diluted in phosphate-buffered saline (PBS) to the respective target concentrations and to a final volume of 25 μL per agent. DMSO for vehicle was set at the DMSO volume used in the cediranib+erlotinib combination (8.4 μL DMSO).
# Vehicle and diluted agents were subsequently applied dropwise to the quail chorioallantoic membrane. Quail were photographed at 0 hours, 24 hours, and 48 hours.
# [11] = cited from earlier work
# [12] = tested on: B16F10 murine melanoma cell line; assay: B16F10 xenograft CAM assay, radiance; assay type: in vivo; details: FIG. 18A
# Protocol: Validation assays are conducted to correlate murine and human cell lines across a range of biologicals and small molecule drugs for pediatric and adult cell lines. B16F10 is a murine melanoma cell line constitutively expressing firefly luciferase (available as cat #BW124734 from Perkin-Elmer, Akron, Ohio USA), which is used to form a CAM xenograft as per the invention herein with the difference of being an adult-type cancer cell line, and radiance reflecting cell viability as impaired by drug. In FIGS. 18A-18J, to analyze drug efficacy on tumor cells, luciferin is added to the scaffold and then imaged by a CCD camera to determine the total xenograft cell viability, with the results indicated as radiance (e.g., steradians/cm^2/s) on the Y axis. See also FIG. 1 at Step 14.
structure (smiles),measurement,setting,value
Cc1sc2c(c1C)C(c1ccc(Cl)cc1)=N[C@@H](CC(=O)OC(C)(C)C)c1nnc(C)n1-2 [JQ1],efficacy against Hep3B in vivo,[1],showed efficacy
CS(=O)(=O)CCNCc1ccc(-c2ccc3ncnc(Nc4ccc(OCc5cccc(F)c5)c(Cl)c4)c3c2)o1 [lapatinib],dose-response in BT474 xenograft CAM assay,[2],dose-response relationship
Cn1c(=O)n(-c2ccc(C(C)(C)C#N)cc2)c2c3cc(-c4cnc5ccccc5c4)ccc3ncc21 [BEZ235],"significance p, treated (n=6) vs vehicle control (n=4), tumor bioluminescence","[3]; FIG. 14, unpaired two-tailed t-test with Welch's correction",0.0048
same,inhibition of tumor growth in u48484 xenograft CAM assay,[3]; FIG. 18J,drug-related inhibition of tumor growth can be observed
same,inhibition at 0.5 µM,"[3]; Mus musculus, Rhabdomyosarcoma cell, 500 nM in the hydrogel volume, 72 hours on CAM, read-out: reduction in U48484 tumor module bioluminescence (tumor cell viability)",20%
CC[C@@H]1C(=O)N(C)c2cnc(Nc3ccc(C(=O)N[C@H]4CC[C@H](N5CCN(CC6CC6)CC5)CC4)cc3OC)nc2N1C(C)C [volasertib],IC50,HB282 CAM xenograft,1.04 µM
same,tumor growth of HB243 mouse xenograft relative to the control group,HB243 murine xenografts; FIG. 16E,statistically significant reduction in growth
same,treatment mice surviving to the endpoint longer than control (average),"HB243 murine xenografts; HB243 mouse xenograft, vs vehicle",4.5 days
same,"survival of HB243 murine xenografts, treatment vs control, p (Mantel-Cox test)","HB243 murine xenografts; n=4, event = tumor volume equal or greater than 0.75 cc, intraperitoneal",0.031
same,IC50,[4],0.916 µM
same,sensitivity of HepG2 ex ovo,"[5]; FIG. 16D, CAM xenograft, osmotic bead delivery, 72 hours",insensitive at any concentration
same,dose-response in HepG2 xenograft CAM assay,[5],dose-response relationship can be observed
same,IC50,[6],0.508 µM
same,IC50,[7]; Homo sapiens,0.191 µM
same,IC50,[7],0.282 µM
same,IC50,HB243 CAM xenograft,1.46 µM
same,survival / response of HepG2 mouse xenograft,HepG2 murine xenografts,no increase in survival; also recorded: continued to be resistant
Cc1sc2c(c1C)C(c1ccc(Cl)cc1)=N[C@@H](CC(=O)Nc1ccc(OCCOCCOCCOCCNc3cccc4c3C(=O)N(C3CCC(=O)NC3=O)C4=O)cc1)c1nnc(C)n1-2 (stereo partly shown) [ARV-825],efficacy against GL261 in vivo,[8],showing efficacy
same,efficacy against GL261 in vitro,[9],showing efficacy
COc1cc2c(Oc3ccc4[nH]c(C)cc4c3F)ncnc2cc1OCCCN1CCCC1 [cediranib],remaining viable quail 48 hours after dosing,[10],3
same,maximum clinically-achievable serum concentrations (Cmax) in human patients,[11],42 ng/mL
Cc1ncsc1-c1ccc(CNC(=O)[C@@H]2C[C@@H](O)CN2C(=O)[C@@H](NC(=O)COCCOCCOCCNC(=O)C[C@@H]2N=C(c3ccc(Cl)cc3)c3c(sc(C)c3C)-n3c(C)nnc32)C(C)(C)C)cc1 [MZ1],dose-response in HepG2 xenograft CAM assay,[5],dose-response relationship can be observed
same,dose-response in B16F10 xenograft CAM assay,[12],dose-response relationship exists
C#Cc1cccc(Nc2ncnc3cc(OCCOC)c(OCCOC)cc23)c1 [erlotinib],remaining viable quail 48 hours after dosing,[10],3
same,maximum clinically-achievable serum concentrations (Cmax) in human patients,[11],1300 ng/mL
